Source: patent US20070261950A1, “IONIZED WATER AND METHOD OF PRODUCING SAME” (priority 2006, published 2007)

Tests used:
RAW264.7 cells [1] = test: Intracellular ROS induced by LPS in RAW264.7 cells (C400 fluorescence, confocal microscopy); format: cell-based, mouse; settings: 24 hours
Protocol: More specifically, RAW264.7 cells were incubated in 10% FBS containing α-MEM dissolved in a) 0.12% NaCl, b) 0.12% NaCl+85 ppm NaClO, or c) NIW. The cells were incubated in the presence or absence of E. coli LPS (1 μg/ml) for 24 hours. The cells were stained with Fluorescein-derivative ROS reacting reagent, 5-(and 6)-carboxy-2′,7′-dichlorodihydrofluorescein diacetate (#C400, Molecular Probes). The C400 only reacts with ROS and develops fluorescence emission at a wavelength range of 517-527 nm. The staining pattern was analyzed by 0.3 μm sequential optical sectioning at ×400 or ×1000 magnification with a Leica™ TCS/SP-2 laser scan confocal microscope.

RAW264.7 cells [2] = test: IL-1β production by peptidoglycan-stimulated RAW264.7 cells (ELISA); format: cell-based, mouse; settings: peptidoglycan 5 μg/ml, 24 hours; 25% NIW, 75% DIW; DH-DIW; NaClO 100 ppm
Protocol: Next, the effects of NIW generated from 0.12% NaCl solution or water containing DH (dissolved hydrogen) on proinflammatory cytokine, IL-1β, production by the RAW264.7 cells in vitro was studied. Briefly, mouse RAW264.7 cells in 96-well tissue culture plates were stimulated with 5 μg/ml of peptidoglycan (Staphylococcus aureus origin, from Sigma) in NIW-based complete medium of α-MEM (25% NIW, 75% DIW) or DIW-based α-MEM (100% DIW). Hydrogen was dissolved in DIW for two days (DH-DIW) or NaClO (100 ppm) was additionally added to DIW. All media used in this assay were supplemented with FBS (10%). After 24 hours of incubation, culture supernatants were collected from the 96-well plates and diluted in an equal volume of PBS containing 0.05% Tween 20 detergent (PBST). A commercially available ELISA kit for IL-1β was employed to measure the concentration of IL-1β in the culture supernatants.

In the case of `OCl` [sodium hypochlorite (NaClO) water, sodium hypochlorite], the “LPS-dependent intracellular ROS induction” value (RAW264.7 cells [1]; E. coli LPS 1 μg/ml) is reported as “LPS treatment induced intracellular ROS”, the “intracellular ROS in the absence of LPS” value (RAW264.7 cells [1]; no LPS) is reported as “did not show intracellular ROS” and the IL-1β production (RAW264.7 cells [2]) is reported as “augmented the mitogenic activity of the peptidoglycan”.
